Reference: patent US20210115104A1, “AMYLIN ANALOGUES” (Zealand Pharma A/S, priority 2015, published 2021)
*1 amine or outer side, *2 acyl side, *3 side chain or, on linkers, in order; H or OH if unused. Where a SMILES comes first, the peptide text is derived from it. Bridges are numbered along the chain shown (N, C = ends). [ ]: non-standard residue; d: D form. The star is where a group is joined. C20 diacid = O=C(O)CCCCCCCCCCCCCCCCCCC(=O)*; γGlu = O=C(O)[C@H](CCC(=O)[*:2])N[*:1]; Hyp = O=C(O)[C@@H]1C[C@@H](O)CN1; NMeI = CC[C@H](C)[C@H](NC)C(=O)O; Aad = N[C@@H](CCCC(=O)O)C(=O)O; Sar = CNCC(=O)O

Experiments:
[1] = target: T1, human calcitonin receptor (hCTR2) (Homo sapiens, UniProt P30988); assay: hCTR2 cAMP assay (AlphaScreen) in COS7 cells; assay type: cell-based; details: cAMP induction, COS7 cells expressing hCTR2; Table 1; read-out: hCTR2 EC50
T1 construct: expressed in transfected cells
T1 sequence (P30988 25-474): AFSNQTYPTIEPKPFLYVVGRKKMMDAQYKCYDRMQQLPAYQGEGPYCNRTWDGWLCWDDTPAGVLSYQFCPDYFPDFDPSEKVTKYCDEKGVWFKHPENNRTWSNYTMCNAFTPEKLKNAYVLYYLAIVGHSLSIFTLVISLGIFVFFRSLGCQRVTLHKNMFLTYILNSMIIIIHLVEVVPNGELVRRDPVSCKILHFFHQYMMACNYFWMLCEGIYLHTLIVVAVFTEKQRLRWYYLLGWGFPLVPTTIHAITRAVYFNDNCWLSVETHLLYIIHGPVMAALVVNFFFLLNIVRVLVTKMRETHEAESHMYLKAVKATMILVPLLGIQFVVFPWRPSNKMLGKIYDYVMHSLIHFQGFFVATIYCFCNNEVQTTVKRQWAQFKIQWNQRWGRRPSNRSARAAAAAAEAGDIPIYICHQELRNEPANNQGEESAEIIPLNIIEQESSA
Method in brief: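 Stable hCTR2 clone in RAMP-naïve COS7 cells stimulated 15 min at 37 °C with increasing peptide concentrations in Tyrode buffer pH 7.4 containing IBMX and 0.1% casein. cAMP in lysates measured by AlphaScreen; EC50 from 4-parameter logistic fit.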

[2] = target: T2, human amylin receptor 3 (hAMYR3), hCTR2 co-expressed with hRAMP3 (Homo sapiens, UniProt O60896+P30988); assay: hAMYR3 cAMP assay (AlphaScreen) in COS7 cells; assay type: cell-based; details: cAMP induction, COS7 cells expressing hAMYR3; Table 1; read-out: hAMYR3 EC50
T2 construct: expressed in transfected cells
T2 sequence (P30988 25-474): T1 sequence (P30988 25-474)
T2 sequence (O60896 24-148 partner): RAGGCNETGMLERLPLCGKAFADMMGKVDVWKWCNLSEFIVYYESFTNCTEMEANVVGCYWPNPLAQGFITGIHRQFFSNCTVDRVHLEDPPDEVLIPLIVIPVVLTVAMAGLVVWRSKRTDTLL
Method in brief: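 Stable COS7 clone co-expressing hCTR2 and hRAMP3 was exposed to increasing peptide concentrations in Tyrode buffer (pH 7.4) with 100 µM IBMX and 0.1% casein for 15 min at 37 °C. Lysate cAMP was measured by AlphaScreen; EC50 came from 4-parameter logistic fitting.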

[3] = Assessment of physical stability (Thioflavin T fibrillation); assay type: physicochemical; design: key: FND = fibrillation not detected; FD = fibrillation detected; details: 1 mg/ml, 40° C., ThT; for Fibrillation pH 4.0 (Ac): 50 mM acetate buffer pH 4.0, 96 hours; for Fibrillation pH 7.0 (His): 50 mM histidine buffer pH 7.0, 96 hours; for Fibrillation pH 7.0 (Phos.): 50 mM phosphate buffer pH 7.0, 96 hours
Method in brief: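 1 mg/ml peptide with 40 μM ThT in 50 mM phosphate pH 7.0, 50 mM histidine pH 7.0 or 50 mM acetate pH 4.0, in triplicate. Fluorescence read every 10 min after 300 s agitation over 96 h at 40 °C. Lag-time (h) is the intersection of linear fits to stable and growth phases.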

[4] = Assessment of chemical stability (RP-HPLC normalized purity); assay type: physicochemical; details: for Normalized purity after 7 days, 40° C., pH 4: pH 4, 0.2 mg/ml; for Normalized purity after 7 days, 40° C., pH 4 / Normalized purity after 7 days, 40° C., pH 6 / Normalized purity after 7 days, 40° C., pH 7.5 / Normalized purity after 7 days, 40° C., pH 9: Table 1; for Normalized purity after 7 days, 40° C., pH 6: pH 6, 0.2 mg/ml; for Normalized purity after 7 days, 40° C., pH 7.5: pH 7.5, 0.2 mg/ml; for Normalized purity after 7 days, 40° C., pH 9: pH 9, 0.2 mg/ml
Method in brief: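 Peptides at 0.2 mg/ml in water adjusted to pH 4, 6, 7.5 or 9, incubated at 40° C for 7 days. Main-peak area-% by RP-HPLC (C8 ammonium formate or C18 TFA gradient, UV 220 nm), normalized to T=0 as 100.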

| EC50 [1] | EC50 [2] | Fibrillation pH 4.0 (Ac) [3] | Fibrillation pH 7.0 (His) [3] | Fibrillation pH 7.0 (Phos.) [3] | Normalized purity after 7 days, 40° C., pH 4 [4] | Normalized purity after 7 days, 40° C., pH 6 [4] | Normalized purity after 7 days, 40° C., pH 7.5 [4] | Normalized purity after 7 days, 40° C., pH 9 [4] | Normalized purity pH 4 (Table 5) ([4]; pH 4, repeat of Example 6 for pairs with/without Asn-Asn at 21-22) | Normalized purity pH 6 (Table 5) ([4]; pH 6, repeat of Example 6 for pairs with/without Asn-Asn at 21-22) | Normalized purity pH 7.5 (Table 5) ([4]; pH 7.5, repeat of Example 6 for pairs with/without Asn-Asn at 21-22) | Normalized purity pH 9 (Table 5) ([4]; pH 9, repeat of Example 6 for pairs with/without Asn-Asn at 21-22) | SMILES |
| --- | --- | --- | --- | --- | --- | --- | --- | --- | --- | --- | --- | --- | --- |
| 0.12 nM | 0.23 nM | FND | FD | FD | A (A = >90%) | A (A = >90%) | B (B = 70-90%) | B (B = 70-90%) | – | – | – | – | CC[C@H](C)[C@@H](C(=O)N[C@@H](CC(C)C)C(=O)N[C@@H](CO)C(=O)N[C@@H](CO)C(=O)N[C@H](C(=O)N[C@@H](CCC(=O)O)C(=O)N[C@H](C(=O)NCC(=O)N[C@@H](CO)C(=O)NCC(=O)N[C@H](C(=O)N1C[C@H](O)C[C@H]1C(N)=O)[C@@H](C)O)C(C)C)[C@@H](C)O)N(C)C(=O)[C@H](C)NC(=O)CN(C)C(=O)[C@H](Cc1ccccc1)NC(=O)[C@H](CCCNC(=N)N)NC(=O)[C@H](CCC(N)=O)NC(=O)[C@H](CC(C)C)NC(=O)[C@H](Cc1ccccc1)NC(=O)[C@H](Cc1c[nH]cn1)NC(=O)[C@H](C)NC(=O)[C@H](CC(C)C)NC(=O)[C@H](CCCNC(=N)N)NC(=O)[C@H](CCC(N)=O)NC(=O)[C@@H](NC(=O)[C@H](C)NC(=O)[C@@H]1CSSC[C@H](NC(=O)[C@H](CCCNC(=N)N)NC(=O)CC[C@H](NC(=O)CCCCCCCCCCCCCCCCCCC(=O)O)C(=O)O)C(=O)N[C@@H](CC(N)=O)C(=O)N[C@@H]([C@@H](C)O)C(=O)N[C@@H](C)C(=O)N[C@@H]([C@@H](C)O)C(=O)N1)[C@@H](C)O [Compound 79, [19CD]-isoGlu-R-C( )-NTAT-C( )-ATQRLAHFLQRF-Gly(Me)-A-Ile(Me)-LSSTEVGSGT-Hyp-NH2] ({C20 diacid-γGlu}-RCNTATCATQRLAHFLQRF[Sar]A[NMeI]LSSTEVGSGT[Hyp]-NH2; disulfide 2-7) |
| 0.16 nM | 0.2 nM | FND | FND | FND | A (A = >90%) | A (A = >90%) | A (A = >90%) | B (B = 70-90%) | A (A = >90%) | A (A = >90%) | A (A = >90%) | A (A = >90%) | CC[C@H](C)[C@@H](C(=O)N[C@@H](CC(C)C)C(=O)N[C@@H](CO)C(=O)N[C@@H](CO)C(=O)N[C@H](C(=O)N[C@@H](CCC(=O)O)C(=O)N[C@H](C(=O)NCC(=O)N[C@@H](CO)C(=O)N[C@@H](CC(N)=O)C(=O)N[C@H](C(=O)N1C[C@H](O)C[C@H]1C(N)=O)[C@@H](C)O)C(C)C)[C@@H](C)O)N(C)C(=O)[C@H](C)NC(=O)CN(C)C(=O)[C@H](Cc1ccccc1)NC(=O)[C@H](CO)NC(=O)[C@H](CO)NC(=O)[C@H](CCCNC(=N)N)NC(=O)[C@H](CCC(N)=O)NC(=O)[C@H](CC(C)C)NC(=O)[C@H](Cc1ccccc1)NC(=O)[C@H](CCCC(=O)O)NC(=O)[C@H](C)NC(=O)[C@H](CC(C)C)NC(=O)[C@H](CCCNC(=N)N)NC(=O)[C@H](CC(=O)O)NC(=O)[C@@H](NC(=O)[C@H](C)NC(=O)[C@@H]1CSSC[C@H](NC(=O)[C@H](CCCNC(=N)N)NC(=O)CC[C@H](NC(=O)CCCCCCCCCCCCCCCCCCC(=O)O)C(=O)O)C(=O)N[C@@H](CCC(N)=O)C(=O)N[C@@H]([C@@H](C)O)C(=O)N[C@@H](C)C(=O)N[C@@H]([C@@H](C)O)C(=O)N1)[C@@H](C)O [Compound 89, [19CD]-isoGlu-R-C( )-QTAT-C( )-ATDRLA-Aad-FLQRSSF-Gly(Me)-A-Ile(Me)-LSSTEVGSNT-Hyp-NH2] ({C20 diacid-γGlu}-RCQTATCATDRLA[Aad]FLQRSSF[Sar]A[NMeI]LSSTEVGSNT[Hyp]-NH2; disulfide 2-7) |
| 0.08 nM | 0.17 nM | FND | FND | FND | A (A = >90%) | A (A = >90%) | A (A = >90%) | A (A = >90%) | – | – | – | – | CC[C@H](C)[C@@H](C(=O)N[C@@H](CC(C)C)C(=O)N[C@@H](CO)C(=O)N[C@@H](CO)C(=O)N[C@H](C(=O)N[C@@H](CCC(=O)O)C(=O)N[C@H](C(=O)NCC(=O)N[C@@H](CO)C(=O)NCC(=O)N[C@H](C(=O)N1C[C@H](O)C[C@H]1C(N)=O)[C@@H](C)O)C(C)C)[C@@H](C)O)N(C)C(=O)[C@H](C)NC(=O)CN(C)C(=O)[C@H](Cc1ccccc1)NC(=O)[C@H](CO)NC(=O)[C@H](CO)NC(=O)[C@H](CCCNC(=N)N)NC(=O)[C@H](CCC(N)=O)NC(=O)[C@H](CC(C)C)NC(=O)[C@H](Cc1ccccc1)NC(=O)[C@H](Cc1c[nH]cn1)NC(=O)[C@H](C)NC(=O)[C@H](CC(C)C)NC(=O)[C@H](CCCNC(=N)N)NC(=O)[C@H](CC(=O)O)NC(=O)[C@@H](NC(=O)[C@H](C)NC(=O)[C@@H]1CSSC[C@H](NC(=O)[C@H](CCCNC(=N)N)NC(=O)CC[C@H](NC(=O)CCCCCCCCCCCCCCCCCCC(=O)O)C(=O)O)C(=O)N[C@@H](CCC(N)=O)C(=O)N[C@@H]([C@@H](C)O)C(=O)N[C@@H](C)C(=O)N[C@@H]([C@@H](C)O)C(=O)N1)[C@@H](C)O [Compound 91, [19CD]-isoGlu-R-C( )-QTAT-C( )-ATDRLAHFLQRSSF-Gly(Me)-A-Ile(Me)-LSSTEVGSGT-Hyp-NH2] ({C20 diacid-γGlu}-RCQTATCATDRLAHFLQRSSF[Sar]A[NMeI]LSSTEVGSGT[Hyp]-NH2; disulfide 2-7) |
| 0.33 nM | 0.28 nM | FND | FND | FND | A (A = >90%) | A (A = >90%) | A (A = >90%) | A (A = >90%) | – | – | – | – | CC[C@H](C)[C@@H](C(=O)N[C@@H](CC(C)C)C(=O)N[C@@H](CO)C(=O)N[C@@H](CO)C(=O)N[C@H](C(=O)N[C@@H](CCC(=O)O)C(=O)N[C@H](C(=O)NCC(=O)N[C@@H](CO)C(=O)N[C@@H](CC(N)=O)C(=O)N[C@H](C(=O)N1CCC[C@H]1C(N)=O)[C@@H](C)O)C(C)C)[C@@H](C)O)N(C)C(=O)[C@H](C)NC(=O)CN(C)C(=O)[C@H](Cc1ccccc1)NC(=O)[C@H](CCCNC(=N)N)NC(=O)[C@H](CCC(N)=O)NC(=O)[C@H](CC(C)C)NC(=O)[C@H](Cc1ccccc1)NC(=O)[C@H](Cc1c[nH]cn1)NC(=O)[C@H](C)NC(=O)[C@H](CC(C)C)NC(=O)[C@H](CCCNC(=N)N)NC(=O)[C@H](CCC(=O)O)NC(=O)[C@@H](NC(=O)[C@H](C)NC(=O)[C@@H]1CSSC[C@H](NC(=O)[C@H](CCCNC(=N)N)NC(=O)CC[C@H](NC(=O)CCCCCCCCCCCCCCCCCCC(=O)O)C(=O)O)C(=O)N[C@@H](CCC(N)=O)C(=O)N[C@@H]([C@@H](C)O)C(=O)N[C@@H](C)C(=O)N[C@@H]([C@@H](C)O)C(=O)N1)[C@@H](C)O [Compound 96, [19CD]-isoGlu-R-C( )-QTAT-C( )-ATERLAHFLQRF-Gly(Me)-A-Ile(Me)-LSSTEVGSNTP-NH2] ({C20 diacid-γGlu}-RCQTATCATERLAHFLQRF[Sar]A[NMeI]LSSTEVGSNTP-NH2; disulfide 2-7) |
